In US20230036911A1, “CULTURE SYSTEMS FOR THE EFFICIENT PRODUCTION OF GENE TRANSFER VECTORS” (Greffex, Inc., priority 2019, published 2023):

Key:
HEK293-type cells [1] = test: Cellular DNA content by Vybrant staining and flow cytometry of cultured HEK293-type cells; assay type: cell-based, human; details: ascorbic acid 5 µg/ml, 24 hrs of culture, versus culture in the absence of ascorbic acid
Method: HEK293-type cells were taken from a working cell bank and were cultured in an appropriate tissue culture vessel in an appropriate tissue culture medium both known by a person skilled in the art. They were expanded at appropriate conditions, such 37° C., 5% CO2. Cell growth and density was monitored daily. One day after cellular confluency was reached the cells were harvested by methods known by a person skilled in the art. The harvested HEK293-type cells were diluted in tissue culture medium and reseeded in an appropriate tissue culture vessel in and appropriate tissue culture medium. To one set of HEK293-type cells ascorbic acid was added at a final concentration of 5 µg/ml. After 24 hrs of culture, the cells were harvested and stained for DNA content by Vybrant (Invitrogen) following the manufacturers protocols. The cells were analyzed by fluorescence on a fluorescence activate cell analyzer (Beckman-Coulter Cytomics FC500).

HEK293-type cells [2] = test: Production (encapsidation) of the fully deleted helper virus independent Adenoviral vector fdhiAdGFP, read out as GFP-expressing cells after infection with supernatant; assay type: cell-based, human
Description: In the present example, the use of ascorbic acid composition exemplified by its used for the production of DNA virus, such as, but not limited to, a fully deleted helper virus independent Adenoviral vector. The vector production systems is comprised of three components (as exemplified in FIG. 1): (i) The GreVac module is packaged into the vector. It carries an expression cassette for a transgene, such as the green fluorescent protein, (cytomegalovirus immediate early promotor/enhancer / transgene / human growth hormone poly-adenylation sequence) flanked by ITRs and Ψ sequences, and is called fdhiAdGFP. […]
HEK293-type cells were taken from the working cell bank and were cultured in an appropriate tissue culture vessel in an appropriate tissue culture medium both known by someone experienced in the art. […] Cell growth and density were monitored daily by light microscopy. […]
To measure the efficiency of encapsidation, HEK293-type cells in culture were infected with defined volumes of the Adenoviral vector containing supernatants. […] Then they were harvested and examined for the extent of green fluorescence on a fluorescence activate cell analyzer (Beckman-Coulter Cytomics FC500) as an indicator of the number of infectious adenoviral particles released from the production cells.

## O=C1O[C@H]([C@@H](O)CO)C(O)=C1O [ascorbic acid]
HEK293-type cells [1]
  levels of DNA content in cells: increased levels of DNA
  percentage of cells in the S and G2 stages of the cell cycle: a larger percentage of cells had entered the S and G2 stages of the cell cycle
HEK293-type cells [2]; ascorbic acid added to production cells, conclusion from the studies
  rate of encapsidation of a gene transfer vector: increased the rate of encapsidation
HEK293-type cells [2]; production cells with ascorbic acid 5 µg/ml, 5 days of production, transduced cells read after 2 days, versus no ascorbic acid
  number of infected (GFP-expressing) cells after infection with Adenoviral vector containing supernatant: significantly larger number of infected cells
